Data reported in US20200207989A1, “FLUORESCENT PROBE FOR ALDH3A1 DETECTION” (The University of Tokyo, priority 2016, published 2020).

Legend:
ALDH3A1 = molecular target: T1, ALDH3A1 (Homo sapiens, UniProt P30838); test: Kinetic characteristics (Michaelis-Menten Km, Kcat) with ALDH3A1; assay type: biochemical; settings: five minutes at 37° C., Tris buffer pH 7.5
T1 construct: purchased
T1 sequence (P30838 1-453): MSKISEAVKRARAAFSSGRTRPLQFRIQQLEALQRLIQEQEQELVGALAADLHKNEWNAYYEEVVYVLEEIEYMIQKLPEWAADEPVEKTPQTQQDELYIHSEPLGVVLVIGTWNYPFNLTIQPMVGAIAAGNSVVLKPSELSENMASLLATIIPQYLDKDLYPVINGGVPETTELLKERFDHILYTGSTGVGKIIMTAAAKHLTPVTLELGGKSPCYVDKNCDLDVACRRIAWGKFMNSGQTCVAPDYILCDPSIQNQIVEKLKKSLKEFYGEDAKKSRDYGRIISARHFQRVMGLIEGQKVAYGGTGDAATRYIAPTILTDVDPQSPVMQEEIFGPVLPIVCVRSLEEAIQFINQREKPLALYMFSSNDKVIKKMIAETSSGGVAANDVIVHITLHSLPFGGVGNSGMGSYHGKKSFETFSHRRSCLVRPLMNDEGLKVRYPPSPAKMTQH
Procedure: Human recombinant ALDH1A1/1A3/3A1 was purchased, and 100 mM of KCL, 2 mM of DTT, 1 mM of NAD(P), 10-100 nM of each ALDH, and 10-80 μM of each compound were mixed in Tris buffer (100 mM, pH 7.5), reacted for 30 minutes at 37° C., an equal amount of acetonitrile added, and the reaction stopped. The reaction solution was analyzed by UPLC/MS/MS (Waters). The UPCL chromatogram was carried out over five minutes at a flow rate of 800 μL/min by a linear gradient from 5% acetonitrile 0.01 M ammonium formate/water to 95% acetonitrile 0.01 M ammonium formate/water. An aldehyde-form and carboxylic acid-form probe were detected by the absorbance at a wavelength of 504 nm, and m/z of the MS spectrum at each peak was confirmed to agree with the expected m/z.
For the reaction, 100 mM of KCL, 2 mM of DTT, 1 mM of NAD(P), and five to six concentrations within the range of 10-100 nM of each ALDH and 0.1-80 μM of each probe were selected, mixed in Tris buffer (100 mM, pH 7.5), and reacted for five minutes at 37° C.; an equal amount of acetonitrile was added, and the reaction was stopped. Detection of the aldehyde-form/carboxylic acid-form probes was carried out using the same method as described above by UPLC/MS/MS. Km and Kcat were calculated by fitting the reaction rate at each probe concentration obtained to the Michaelis-Menten equation. A Kaleida Graph ver. 4.1 (Hulinks, Inc.) was used in fitting.
The Kcat ratio (Kcat of ALDH3A1/Kcat of ALDH1A1) was calculated for probe 1, probe 3, and probe 5 as an indicator of ALDH1A1/ALDH3A1 specificity because the probe reaction rate at the actual probe use concentration is believed to be close to Vmax since Km is relatively small (Table 5).

OE21 cells [1] = test: Flow cytometry of OE21 cells (positive rate); assay type: cell-based
Procedure: Flow cytometry was carried out using probe 5 and OE21 cells. The cells were treated using trypsin, and the cell density was measured after passing the cells through a cell strainer (40 μm, Corning). […] After centrifuging for three minutes at 1500 rpm and removing the supernatant after the reaction, the cells were washed with chilled medium, centrifuged, and the medium was removed. The cells were again suspended in 100 μL of medium, and 4 μL of SYTOX (registered trademark) Red Dead Cell Stain (Thermo Fisher) was added. After standing for five minutes on ice, 150 μL of medium was added. […] Analysis was carried out using FACS Canto II (BD Biosciences). Excitation was provided by a blue laser (488 nm), and the brightness of probe 5 was detected in each cell by FITC channel (515-545 nm). About 30,000 cells were analyzed in each sample after removing doublets and removing dead cells. The positive gate was set in a range from near to above the upper limit of brightness in the negative control according to ALDEFLUOR assay, so that at most 3% of the cells were present within the gate in the negative control sample. Three independent tests were run.
ALDH3A1 was knocked down using small interference RNA (siRNA) to confirm that the positive group in flow cytometry using 0E21 cells and compound 5 was due to ALDH3A1 activity, and flow cytometry was conducted. Two siRNAs confirmed to be effective (Silencer (registered trademark) Select, s1243 and s1244) and a negative control (Silencer® negative control #1) were purchased from Thermo Fisher. Lipofectamine® RNAiMAX as transfection reagent and Opti-MEM® as diluent were purchased from Thermo Fisher. According to the instruction manual, 300 μL of siRNA-Lipofectamine complex was produced according to the instruction manual so that siRNA was 10 nM and Lipofectamine was 3%, and 250 μL thereof was mixed with 2.5 mL of OE21 cell suspension and sown in six-well dishes. The effect of knockdown was confirmed after six days by Western blotting (FIG. 6a).
Lysates were produced using negative control cells (ctrl) in which ALDH3A1 was not knocked down and cells (KD) in which ALDH3A1 was permanently knocked down. Western blotting was carried out, and pronounced knockdown of ALDH3A1 was confirmed (FIG. 9a). […] The top 25% (top) and bottom 25% (bottom) of fluorescent brightness were sorted out by FACS Aria II using a sample in which the positive and negative were well separated. The respective lysates were produced, Western blotting was carried out using the same, and the expression levels of ALDH3A1 were compared (FIG. 9c).

OE21 cells [2] = test: SYTOX Red Dead Cell Stain assay during flow cytometry; assay type: cell-based; settings: OE21 shRNA cells, probe 5 with MK-571, SYTOX Red Dead Cell Stain
Procedure: Flow cytometry was carried out using probe 5 and OE21 cells. The cells were treated using trypsin, and the cell density was measured after passing the cells through a cell strainer (40 μm, Corning). A quantity of 500 μL of a cell suspension to make 2.5-5×10^5/mL in medium containing 40 μM of probe 5 was prepared and cultured for 90 minutes at 37° C. After centrifuging for three minutes at 1500 rpm and removing the supernatant after the reaction, the cells were washed with chilled medium, centrifuged, and the medium was removed. The cells were again suspended in 100 μL of medium, and 4 μL of SYTOX (registered trademark) Red Dead Cell Stain (Thermo Fisher) was added. After standing for five minutes on ice, 150 μL of medium was added. A sample with CB7 (10 μM) added was used as a negative control. Analysis was carried out using FACS Canto II (BD Biosciences). Excitation was provided by a blue laser (488 nm), and the brightness of probe 5 was detected in each cell by FITC channel (515-545 nm). About 30,000 cells were analyzed in each sample after removing doublets and removing dead cells. The positive gate was set in a range from near to above the upper limit of brightness in the negative control according to ALDEFLUOR assay, so that at most 3% of the cells were present within the gate in the negative control sample. Three independent tests were run. […]

[3] = 50 μM probe 5, 200 μM MK-571, CB7 20 μM control

## CCN(CCOCCNC(=O)c1ccc(-c2c3ccc(=O)cc-3oc3cc(O)ccc23)c(C)c1)c1ccc(C=O)cc1 [Probe 5, 2-(2-(N-ethyl-N-(4-formylphenyl)amino)ethoxy)ethyl-3-methyl-4-(6-hydroxyxanthen-3-on-9-yl)-benzamide]
ALDH3A1
  Km: 3.49 ± 0.55 µM
OE21 cells [1]; 40 μM probe 5, 90 minutes at 37° C., no MK-571, gate set with CB7 10 μM control
  Positive rate in flow cytometry: 10-15%
OE21 cells [1]; [3]
  Positive rate in flow cytometry with MK-571, ALDH3A1 siRNA knockdown: around 10%
  Positive rate in flow cytometry with MK-571, cells treated by negative control siRNA: about 90%
OE21 cells [1]; 50 μM probe 5, MK-571 200 μM
  Positive rate in flow cytometry with MK-571: about 90%
OE21 cells [2]
  Dead cells / cell death due to the probe: virtually no dead cells were found
